# In patent US10669290B2, “Beta-lactamase inhibitors” (priority 2012, dated 2020):
# Tests used:
# Format in all cases: cell-based
# S. aureus MSSA-7 PC-1 = assay: Broth microdilution MIC, S. aureus MSSA-7; settings: Staphylococcus aureus, fixed piperacillin 4 μg/mL, CAMHB, 16-20 hours 37° C., read-out: MIC of exemplary compounds in presence of fixed β-lactams, Fixed Pip, S. aureus MSSA-7 PC-1
# P. aerug. Ps296 VIM-2 = assay: Broth microdilution MIC, P. aeruginosa Ps296; settings: Pseudomonas aeruginosa; fixed meropenem 4 μg/mL, CAMHB, 16-20 hours 37° C.; read-out: MIC of exemplary compounds in presence of fixed β-lactams, Fixed Mero, P. aerug. Ps296 VIM-2
# Method in brief: (§1)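 Test compound was 2-fold serially diluted in cation-adjusted Mueller Hinton broth (final 32 to 0.25 μg/mL) under a fixed β-lactam overlay at 4 μg/ml. Plates were inoculated per CLSI broth microdilution with 3-5 h cultures, incubated 16-20 hours at 37° C, and MIC was read visually.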
# E. coli ESBL4 CTX-M-15 = assay: Broth microdilution MIC, E. coli ESBL4; settings: Escherichia coli, ESBL4CTXM15; fixed ceftazidime 4 μg/mL, CAMHB, 16-20 hours 37° C.; read-out: MIC of exemplary compounds in presence of fixed β-lactams, Fixed CAZ, E. coli ESBL4 CTX-M-15
# Method in brief: as §1
# E. cl 144200 p99 AmpC = assay: Broth microdilution MIC, E. cloacae 144200; settings: Enterobacter cloacae; fixed ceftazidime 4 μg/mL, CAMHB, 16-20 hours 37° C.; read-out: MIC of exemplary compounds in presence of fixed β-lactams, Fixed CAZ, E. cl 144200 p99 AmpC
# Method in brief: as §1
# K.P. A-1797 KPC-2 VIM-4 = assay: Broth microdilution MIC, K. pneumoniae A-1797; settings: Klebsiella pneumoniae; fixed meropenem 4 μg/mL, CAMHB, 16-20 hours 37° C.; read-out: MIC of exemplary compounds in presence of fixed β-lactams, Fixed Mero, K.P. A-1797 KPC-2 VIM-4
# K.P. 156319 KPC-3 = assay: Broth microdilution MIC, K. pneumoniae 156319; settings: Klebsiella pneumoniae; fixed meropenem 4 μg/mL, CAMHB, 16-20 hours 37° C.; read-out: MIC of exemplary compounds in presence of fixed β-lactams, Fixed Mero, K.P. 156319 KPC-3
SMILES,MIC (S. aureus MSSA-7 PC-1) [µg/mL],MIC (P. aerug. Ps296 VIM-2) [µg/mL],MIC (E. coli ESBL4 CTX-M-15) [µg/mL],MIC (E. cl 144200 p99 AmpC) [µg/mL],MIC (K.P. A-1797 KPC-2 VIM-4) [µg/mL],MIC (K.P. 156319 KPC-3) [µg/mL]
"O=C(C[C@H]1CC[C@H](NCc2cnc[nH]2)CC1)N[C@H]1Cc2cccc(C(=O)O)c2OB1O [Example 70, (R)-3-(2-(trans-4-((1H-imidazol-5-yl)methylamino)cyclohexyl)acetamido)-2-hydroxy-3,4-dihydro-2H-benzo[e][1,2]oxaborinine-8-carboxylic acid]",< 4,< 4,< 4,< 4,8 to 32,< 4
"NC1CC(CC(=O)N[C@H]2Cc3cccc(C(=O)O)c3OB2O)C1 (stereo partly drawn) [Example 56, (R)-3-(2-(3-aminocyclobutyl)acetamido)-2-hydroxy-3,4-dihydro-2H-benzo[e][1,2]oxaborinine-8-carboxylic acid]",< 4,< 4,< 4,< 4,< 4,< 4
"O=C(C[C@H]1CC[C@H](NCC2CCNCC2)CC1)N[C@H]1Cc2cccc(C(=O)O)c2OB1O [Example 33, (R)-2-hydroxy-3-(2-(trans-4-(piperidin-4-ylmethylamino)cyclohexyl)acetamido)-3,4-dihydro-2H-benzo[e][1,2]oxaborinine-8-carboxylic acid]",< 4,8 to 32,< 4,< 4,8 to 32,< 4
"CN(CCN)[C@H]1CC[C@H](CC(=O)N[C@H]2Cc3cccc(C(=O)O)c3OB2O)CC1 [Example 63, (R)-3-(2-(trans-4-((2-aminoethyl)(methyl)amino)cyclohexyl)acetamido)-2-hydroxy-3,4-dihydro-2H-benzo[e][1,2]oxaborinine-8-carboxylic acid]",< 4,< 4,< 4,< 4,< 4,< 4
"CN(C)CCN(C)[C@H]1CC[C@H](CC(=O)N[C@H]2Cc3cccc(C(=O)O)c3OB2O)CC1 [Example 23, (R)-3-(2-(trans-4-((2-(dimethylamino)ethyl)(methyl)amino)cyclohexyl)acetamido)-2-hydroxy-3,4-dihydro-2H-benzo[e][1,2]oxaborinine-8-carboxylic acid]",< 4,> 32,< 4,< 4,> 32,< 4
"CN(C)C[C@H]1CC[C@H](CC(=O)N(C)[C@H]2Cc3cccc(C(=O)O)c3OB2O)CC1 [Example 8, (R)-3-(2-(trans-4-((dimethylamino)methyl)cyclohexyl)-N-methylacetamido)-2-hydroxy-3,4-dihydro-2H-benzo[e][1,2]oxaborinine-8-carboxylic acid]",< 4,8 to 32,< 4,< 4,> 32,8 to 32
"O=C(C[C@H]1CC[C@H](N2CCNCC2)CC1)N[C@H]1Cc2cccc(C(=O)O)c2OB1O [Example 16, (R)-2-hydroxy-3-(2-(trans-4-(piperazin-1-yl)cyclohexyl)acetamido)-3,4-dihydro-2H-benzo[e][1,2]oxaborinine-8-carboxylic acid]",< 4,8 to 32,< 4,< 4,> 32,< 4

# Other lines, results leading:
MIC (S. aureus MSSA-7 PC-1) [µg/mL],MIC (P. aerug. Ps296 VIM-2) [µg/mL],MIC (E. coli ESBL4 CTX-M-15) [µg/mL],MIC (E. cl 144200 p99 AmpC) [µg/mL],MIC (K.P. A-1797 KPC-2 VIM-4) [µg/mL],MIC (K.P. 156319 KPC-3) [µg/mL],SMILES
< 4,< 4,< 4,< 4,< 4,< 4,"N=C(N)NCCN[C@H]1CC[C@H](CC(=O)N[C@H]2Cc3cccc(C(=O)O)c3OB2O)CC1 [Example 25, (R)-3-(2-(trans-4-(2-guanidinoethylamino)cyclohexyl)acetamido)-2-hydroxy-3,4-dihydro-2H-benzo[e][1,2]oxaborinine-8-carboxylic acid]"
< 4,8 to 32,< 4,< 4,8 to 32,< 4,"N=C(N)N[C@H]1CC[C@H](CC(=O)N[C@H]2Cc3cccc(C(=O)O)c3OB2O)CC1 [Example 9, (R)-3-(2-(trans-4-guanidinocyclohexyl)acetamido)-2-hydroxy-3,4-dihydro-2H-benzo[e][1,2]oxaborinine-8-carboxylic acid]"
8 to 32,> 32,< 4,< 4,> 32,< 4,"N[C@H]1CC[C@@H](CC(=O)N[C@H]2Cc3cccc(C(=O)O)c3OB2O)CC1 [Example 7, (R)-3-(2-(cis-4-aminocyclohexyl)acetamido)-2-hydroxy-3,4-dihydro-2H-benzo[e][1,2]oxaborinine-8-carboxylic acid]"
< 4,8 to 32,< 4,< 4,< 4,< 4,"N=C(N)N[C@H]1CC[C@H](CCC(=O)N[C@H]2Cc3cccc(C(=O)O)c3OB2O)CC1 [Example 22, (R)-3-(3-(trans-4-guanidinocyclohexyl)propanamido)-2-hydroxy-3,4-dihydro-2H-benzo[e][1,2]oxaborinine-8-carboxylic acid]"
< 4,> 32,< 4,< 4,8 to 32,< 4,"CN(C)[C@H]1CC[C@H](CC(=O)N[C@H]2Cc3cccc(C(=O)O)c3OB2O)CC1 [Example 14, (R)-3-(2-(trans-4-(dimethylamino)cyclohexyl)acetamido)-2-hydroxy-3,4-dihydro-2H-benzo[e][1,2]oxaborinine-8-carboxylic acid]"
< 4,8 to 32,< 4,< 4,< 4,< 4,"N[C@@H](CO)CN[C@H]1CC[C@H](CC(=O)N[C@H]2Cc3cccc(C(=O)O)c3OB2O)CC1 [Example 65, (R)-3-(2-(trans-4-((R)-2-amino-3-hydroxypropylamino)cyclohexyl)acetamido)-2-hydroxy-3,4-dihydro-2H-benzol[e][1,2]oxaborinine-8-carboxylic acid]"
< 4,< 4,< 4,< 4,8 to 32,< 4,"NCCNC(=O)N[C@H]1CC[C@H](CC(=O)N[C@H]2Cc3cccc(C(=O)O)c3OB2O)CC1 [Example 59, (R)-3-(2-(trans-4-(3-(2-aminoethyl)ureido)cyclohexyl)acetamido)-2-hydroxy-3,4-dihydro-2H-benzo[e][1,2]oxaborinine-8-carboxylic acid]"
< 4,< 4,< 4,< 4,< 4,< 4,"N[C@H]1CC[C@H](CC(=O)N[C@H]2Cc3cccc(C(=O)O)c3OB2O)CC1 [Example 6, (R)-3-(2-(trans-4-aminocyclohexyl)acetamido)-2-hydroxy-3,4-dihydro-2H-benzol[e][1,2]oxaborinine-8-carboxylic acid]"
< 4,< 4,< 4,< 4,< 4,< 4,"NCCN[C@H]1CC[C@@H](CC(=O)N[C@H]2Cc3cccc(C(=O)O)c3OB2O)CC1 [Example 46, (R)-3-(2-(cis-4-(2-aminoethylamino)cyclohexyl)acetamido)-2-hydroxy-3,4-dihydro-2H-benzo[e][1,2]oxaborinine-8-carboxylic acid]"
